The numbers were not newly measured in patent US20250019715A1, “Ribosomal Biosynthesis Of Moroidin Peptides In Plants” (Whitehead Institute for Biomedical Research, priority 2021, published 2025), which cites them from elsewhere.

Ends that are not written are not given here.

In one series the test system is pain sensation. The following applies: isolated as pain-causing agent from Dendrocnide moroides.
The subject of a further series is tubulin polymerization. The settings on record: qualitative statement from prior knowledge.

Turning to `CC(C)C[C@@H]1NC(=O)[C@@H](NC(=O)[C@@H]2CCC(=O)N2)[C@@H](C(C)C)c2ccc3c4c([nH]c3c2)-n2cnc(c2)C[C@@H](C(=O)O)NC(=O)CNC(=O)[C@H](CCCN=C(N)N)NC(=O)[C@H](C4)NC(=O)[C@H](C(C)C)NC1=O` [moroidin], the pain-causing activity result in the series with pain sensation is recorded as “pain-causing agent”. Also, the “inhibitory activity against tubulin polymerization” value in the series on tubulin polymerization is reported as “potent inhibitory activity”.
In the case of “celogentin C (QLLVWPRH; bridge (positions not given here); also: bicyclic crosslinks, places not given here) [moroidin structural analog from Celosia argentea, core peptide QLLVWPRH]”, the “inhibitory activity against tubulin polymerization” value in the series on tubulin polymerization is on record as “potent inhibitory activity”.
